Measured values taken from ChEMBL document CHEMBL1201862, “PubChem BioAssay data set” (2004).
Calls of active or inactive are those of the source.

Tests used:
[1] = target: T1, Orexin receptor type 2 (Homo sapiens, UniProt O43614); assay: Counterscreen assay for antagonists of the orexin 1 receptor (OX1R; HCRTR1): Fluorescence-based cell-based dose response assay for antagonists of the orexin 2 receptor (OX2R; HCRTR2), run by assay provider.; assay type: functional
T1 sequence (O43614 whole entry): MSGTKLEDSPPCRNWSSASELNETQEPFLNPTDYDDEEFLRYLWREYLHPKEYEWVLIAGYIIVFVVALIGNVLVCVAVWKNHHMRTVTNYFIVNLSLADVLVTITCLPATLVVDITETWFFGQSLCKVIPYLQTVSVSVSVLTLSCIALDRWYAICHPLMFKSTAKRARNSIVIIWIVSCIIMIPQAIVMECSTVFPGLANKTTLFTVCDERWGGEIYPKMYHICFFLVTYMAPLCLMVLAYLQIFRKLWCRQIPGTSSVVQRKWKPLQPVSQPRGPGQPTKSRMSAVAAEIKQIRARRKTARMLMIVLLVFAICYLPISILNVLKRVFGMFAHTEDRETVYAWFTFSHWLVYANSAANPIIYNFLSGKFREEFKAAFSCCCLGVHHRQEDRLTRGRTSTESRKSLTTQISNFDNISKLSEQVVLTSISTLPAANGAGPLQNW

[2] = target: T2, Orexin/Hypocretin receptor type 1 (Homo sapiens, UniProt O43613); assay: Homogeneous Time Resolved Fluorescence (HTRF)-based cell-based high throughput dose response assay for antagonists of the orexin 1 receptor (OX1R; HCRTR1). [Related pubchem assays (depositor defined):AID434989, AID435008, AID463079, AID485270, AID492963, AID492964, AID492965, AID493232, AID504717, AID504718]; assay type: functional
T2 sequence (O43613 whole entry): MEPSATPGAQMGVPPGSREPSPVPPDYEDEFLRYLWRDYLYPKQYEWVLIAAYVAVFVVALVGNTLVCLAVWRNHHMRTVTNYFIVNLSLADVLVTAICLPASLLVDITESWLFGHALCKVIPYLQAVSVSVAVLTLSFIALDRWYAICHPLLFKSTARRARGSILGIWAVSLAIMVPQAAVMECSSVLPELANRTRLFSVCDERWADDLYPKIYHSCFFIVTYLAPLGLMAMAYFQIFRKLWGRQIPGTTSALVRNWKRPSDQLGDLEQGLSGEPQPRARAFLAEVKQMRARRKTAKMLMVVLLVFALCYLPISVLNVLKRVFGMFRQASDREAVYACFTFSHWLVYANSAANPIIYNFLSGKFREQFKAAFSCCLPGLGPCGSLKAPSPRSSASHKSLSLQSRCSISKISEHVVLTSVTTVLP

[3] = (§1) Counterscreen for antagonists of the orexin 1 receptor (OX1R; HCRTR1): Fluorescence-based cell-based high throughput dose response assay to identify antagonists of the parental CHO cell line. [Related pubchem assays (depositor defined):AID434989, AID435008, AID463079, AID485270, AID492963, AID492964, AID492965, AID493232, AID504699, AID504701]; assay type: functional
[4] = target: T2, Orexin/Hypocretin receptor type 1; assay: Fluorescence-based cell-based high throughput dose response assay for antagonists of the orexin 1 receptor (OX1R; HCRTR1). [Related pubchem assays (depositor defined):AID434989, AID435008, AID463079, AID485270, AID492963, AID492964, AID492965, AID493232, AID504717, AID504718]; assay type: functional
[5] = target: T1, Orexin receptor type 2; assay: Counterscreen assay for antagonists of the orexin 1 receptor (OX1R; HCRTR1): Homogeneous Time Resolved Fluorescence (HTRF)-based cell-based dose response assay for antagonists of the orexin 2 receptor (OX2R; HCRTR2), run by assay provider.; assay type: functional
[6] = tested on: CHO-K1; assay: as §1, with “Homogeneous time resolved fluorescence (HTRF)-based” for “Fluorescence-based”, “cell-based” for “cell-based high throughput”, “CHO-K1” for “CHO”; assay type: functional; conditions: Cricetulus griseus;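 also: potency for inhibition of ATP-stimulated IP1 production as antagonists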
[7] = target: T3, Sentrin-specific protease 7 (Homo sapiens, UniProt Q9BQF6); assay: SENP7 protease inhibitors, SAR follow-up, biochemical, luminescence, set 2 (AID 588600); assay type: functional
T3 sequence (Q9BQF6 whole entry): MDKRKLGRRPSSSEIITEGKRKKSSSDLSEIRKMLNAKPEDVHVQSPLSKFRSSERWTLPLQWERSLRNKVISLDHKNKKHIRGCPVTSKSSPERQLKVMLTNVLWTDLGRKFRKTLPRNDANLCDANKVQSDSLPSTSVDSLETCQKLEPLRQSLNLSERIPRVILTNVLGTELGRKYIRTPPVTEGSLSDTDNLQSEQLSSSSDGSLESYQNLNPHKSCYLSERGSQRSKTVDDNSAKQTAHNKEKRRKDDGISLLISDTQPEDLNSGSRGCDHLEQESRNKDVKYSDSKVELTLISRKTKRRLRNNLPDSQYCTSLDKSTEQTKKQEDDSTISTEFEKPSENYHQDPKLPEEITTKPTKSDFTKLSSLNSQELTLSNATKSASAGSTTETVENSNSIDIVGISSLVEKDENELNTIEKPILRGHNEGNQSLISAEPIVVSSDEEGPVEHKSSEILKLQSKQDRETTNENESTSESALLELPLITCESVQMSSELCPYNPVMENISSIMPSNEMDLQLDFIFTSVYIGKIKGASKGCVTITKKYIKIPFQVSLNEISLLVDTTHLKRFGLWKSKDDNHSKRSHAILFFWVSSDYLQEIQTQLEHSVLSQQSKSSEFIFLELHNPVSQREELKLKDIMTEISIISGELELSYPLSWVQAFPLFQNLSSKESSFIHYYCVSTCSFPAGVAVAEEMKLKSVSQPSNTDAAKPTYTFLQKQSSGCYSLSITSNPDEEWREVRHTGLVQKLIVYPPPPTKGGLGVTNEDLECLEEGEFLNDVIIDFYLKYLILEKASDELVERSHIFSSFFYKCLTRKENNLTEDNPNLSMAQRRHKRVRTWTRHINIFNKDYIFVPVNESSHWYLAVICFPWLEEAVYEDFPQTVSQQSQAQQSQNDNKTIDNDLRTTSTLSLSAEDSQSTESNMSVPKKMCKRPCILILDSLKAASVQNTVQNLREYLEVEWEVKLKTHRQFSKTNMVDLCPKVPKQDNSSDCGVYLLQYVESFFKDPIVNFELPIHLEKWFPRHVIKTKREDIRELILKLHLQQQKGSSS

[8] = target: T4, Sentrin-specific protease 6 (Homo sapiens, UniProt Q9GZR1); assay: SENP6 protease inhibitors, SAR follow-up, biochemical, luminescence, set 2 (AID 588598); assay type: functional
T4 sequence (Q9GZR1 whole entry): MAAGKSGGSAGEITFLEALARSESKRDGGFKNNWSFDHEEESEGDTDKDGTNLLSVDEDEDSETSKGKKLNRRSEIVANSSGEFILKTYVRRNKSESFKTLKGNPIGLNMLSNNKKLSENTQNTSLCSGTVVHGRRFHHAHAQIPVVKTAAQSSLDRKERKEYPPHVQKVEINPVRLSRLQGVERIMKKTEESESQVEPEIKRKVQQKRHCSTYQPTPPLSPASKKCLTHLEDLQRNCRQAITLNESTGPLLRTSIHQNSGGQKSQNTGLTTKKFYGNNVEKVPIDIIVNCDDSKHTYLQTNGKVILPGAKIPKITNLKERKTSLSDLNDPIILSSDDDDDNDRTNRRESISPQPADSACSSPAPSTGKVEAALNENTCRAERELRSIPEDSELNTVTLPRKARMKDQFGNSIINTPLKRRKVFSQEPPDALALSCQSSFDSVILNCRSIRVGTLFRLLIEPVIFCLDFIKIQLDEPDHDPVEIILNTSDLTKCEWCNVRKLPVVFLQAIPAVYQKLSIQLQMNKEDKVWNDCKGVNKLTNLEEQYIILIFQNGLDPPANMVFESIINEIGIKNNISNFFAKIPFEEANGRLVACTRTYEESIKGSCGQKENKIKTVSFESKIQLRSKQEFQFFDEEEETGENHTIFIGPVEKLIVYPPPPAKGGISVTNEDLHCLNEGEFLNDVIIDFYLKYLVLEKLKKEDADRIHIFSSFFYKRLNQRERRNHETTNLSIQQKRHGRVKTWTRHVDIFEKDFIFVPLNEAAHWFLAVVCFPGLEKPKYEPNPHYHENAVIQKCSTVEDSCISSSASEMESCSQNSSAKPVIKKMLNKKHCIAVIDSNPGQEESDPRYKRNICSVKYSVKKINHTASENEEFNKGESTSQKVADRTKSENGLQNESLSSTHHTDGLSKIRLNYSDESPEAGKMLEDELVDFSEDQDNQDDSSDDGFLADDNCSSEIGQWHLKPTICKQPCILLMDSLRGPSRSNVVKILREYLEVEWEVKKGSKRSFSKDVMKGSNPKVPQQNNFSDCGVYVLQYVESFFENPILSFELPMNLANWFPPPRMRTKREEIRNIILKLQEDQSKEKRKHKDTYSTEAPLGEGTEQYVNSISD

[9] = target: T5, Caspase-3 (Homo sapiens, UniProt P42574); assay: caspase-3 inhibitors as off-family protease, SAR follow-up, selectivity assay for SENP protease inhibitor project, biochemical, luminescence, set 2 (AID 588599); assay type: functional
T5 sequence (P42574 whole entry): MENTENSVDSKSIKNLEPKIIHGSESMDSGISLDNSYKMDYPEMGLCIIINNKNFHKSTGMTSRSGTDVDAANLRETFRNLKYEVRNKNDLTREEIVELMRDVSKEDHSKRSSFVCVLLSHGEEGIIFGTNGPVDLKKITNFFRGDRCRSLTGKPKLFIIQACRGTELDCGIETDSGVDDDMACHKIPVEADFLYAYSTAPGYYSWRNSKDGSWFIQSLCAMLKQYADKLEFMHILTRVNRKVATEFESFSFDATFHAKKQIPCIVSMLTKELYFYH

[10] = target: T6, Sentrin-specific protease 8 (Homo sapiens, UniProt Q96LD8); assay: SENP8 protease inhibitors, SAR follow-up, biochemical, luminescence, set 2 (AID 588601); assay type: functional
T6 sequence (Q96LD8 whole entry): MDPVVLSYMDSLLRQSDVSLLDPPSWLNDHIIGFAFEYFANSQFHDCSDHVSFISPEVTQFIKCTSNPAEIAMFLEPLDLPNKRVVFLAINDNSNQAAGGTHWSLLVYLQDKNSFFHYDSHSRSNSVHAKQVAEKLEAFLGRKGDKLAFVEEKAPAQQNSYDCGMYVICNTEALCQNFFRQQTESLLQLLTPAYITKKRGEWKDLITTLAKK

[11] = target: Voltage-gated inwardly rectifying potassium channel KCNH2 (Homo sapiens, UniProt Q12809); conditions: Potency;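 also: confirmatory quantitative high-throughput screen measuring inhibition of hERG channel activity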
[12] = target: Heat shock protein HSP 90-alpha (Homo sapiens, UniProt P07900); assay type: functional, organism-based
[13] = HEp-2 cell cytotoxicity, dose response, cytotoxicity control for RSV inhibitor project, HTS (AID 2410); assay type: functional; conditions: human respiratory syncytial virus
[14] = nonselective inhibitors of cellular cAMP signaling, dose response, counter-screen for MC4R biased antagonist project, cell-based, TR-FRET cAMP detection (AID 602305); assay type: functional;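 also: U2OS cells stimulated with forskolin near its EC80 as the cAMP inducer; potency is for inhibition of forskolin-stimulated cAMP signaling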
[15] = target: Melanocortin receptor 4 (Homo sapiens, UniProt P32245); assay: MC4R antagonist potency on cAMP, dose response, cell-based, TR-FRET, biased antagonists (AID 602298); assay type: functional;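 also: antagonist potency against agonist-stimulated cAMP production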
Chain of Melanocortin receptor 4 (P32245 whole entry): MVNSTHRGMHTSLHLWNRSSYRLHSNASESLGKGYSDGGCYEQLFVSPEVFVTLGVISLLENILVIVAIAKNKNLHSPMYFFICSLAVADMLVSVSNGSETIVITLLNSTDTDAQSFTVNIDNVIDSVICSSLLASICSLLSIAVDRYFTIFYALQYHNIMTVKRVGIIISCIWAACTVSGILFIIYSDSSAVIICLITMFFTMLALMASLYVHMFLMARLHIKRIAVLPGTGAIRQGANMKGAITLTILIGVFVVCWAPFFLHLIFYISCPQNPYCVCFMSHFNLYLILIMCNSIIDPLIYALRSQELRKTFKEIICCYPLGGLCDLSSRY

Chain of Voltage-gated inwardly rectifying potassium channel KCNH2 (Q12809 whole entry): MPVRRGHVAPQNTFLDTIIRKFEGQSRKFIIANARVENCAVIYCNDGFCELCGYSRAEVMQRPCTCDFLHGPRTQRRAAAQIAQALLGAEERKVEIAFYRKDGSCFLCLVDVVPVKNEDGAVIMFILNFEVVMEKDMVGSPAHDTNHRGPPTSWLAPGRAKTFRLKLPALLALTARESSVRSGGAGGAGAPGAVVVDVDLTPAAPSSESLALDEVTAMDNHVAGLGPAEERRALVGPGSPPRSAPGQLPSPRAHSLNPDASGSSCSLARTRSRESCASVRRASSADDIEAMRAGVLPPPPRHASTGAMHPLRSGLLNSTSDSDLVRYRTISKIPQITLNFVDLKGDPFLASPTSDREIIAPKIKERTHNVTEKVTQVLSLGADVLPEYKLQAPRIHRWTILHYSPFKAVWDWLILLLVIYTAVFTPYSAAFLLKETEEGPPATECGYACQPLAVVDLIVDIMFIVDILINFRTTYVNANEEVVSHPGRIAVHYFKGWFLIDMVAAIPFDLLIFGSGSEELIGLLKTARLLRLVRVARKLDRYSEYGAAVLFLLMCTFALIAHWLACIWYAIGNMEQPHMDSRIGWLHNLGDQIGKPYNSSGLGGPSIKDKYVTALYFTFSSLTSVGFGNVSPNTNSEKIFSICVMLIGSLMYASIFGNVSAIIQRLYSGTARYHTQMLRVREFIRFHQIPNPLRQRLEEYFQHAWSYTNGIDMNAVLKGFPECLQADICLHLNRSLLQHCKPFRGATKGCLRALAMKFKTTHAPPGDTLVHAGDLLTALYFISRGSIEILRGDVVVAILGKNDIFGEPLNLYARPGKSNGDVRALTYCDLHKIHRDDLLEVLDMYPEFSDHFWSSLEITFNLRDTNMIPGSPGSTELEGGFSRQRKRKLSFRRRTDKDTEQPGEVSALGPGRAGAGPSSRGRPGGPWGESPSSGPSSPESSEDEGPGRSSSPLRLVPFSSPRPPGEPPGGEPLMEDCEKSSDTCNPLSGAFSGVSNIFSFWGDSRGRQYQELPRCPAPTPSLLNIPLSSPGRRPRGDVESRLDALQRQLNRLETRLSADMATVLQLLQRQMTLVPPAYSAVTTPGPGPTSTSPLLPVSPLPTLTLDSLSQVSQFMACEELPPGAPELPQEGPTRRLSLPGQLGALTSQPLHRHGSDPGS

For `CCN(CC)c1ccc(NC(=O)c2cc3ccccc3o2)c(C)c1`, the IC50 [1] was > 88.8 µM (inactive), the IC50 [2] was 2.43 µM (active) and the IC50 [3] was > 49.8 µM (inactive). For the same compound, the IC50 [4] was > 49.8 µM (inactive), the IC50 [5] was > 50 µM (inactive) and the IC50 [6] was > 66.2 µM (inactive).
In the case of `Cc1ccccc1-c1noc(/C(C#N)=C\c2ccc3c(c2)OCCO3)n1`, the IC50 [7] is reported as 5.42 µM (active), the IC50 [8] is reported as 4.82 µM (active) and the IC50 [9] is reported as 2.16 µM (active). The IC50 [10] was > 99 µM (inactive).
With `CCCCCCCCCCCCCCCC(=O)OC(CC(=O)O)C[N+](C)(C)C` (stereo not given) the AC50 [11] was 35.5 µM (inconclusive), the AC50 [12] was 1.39 µM (active) and the CC50 [13] was 23.7 µM (active).
With `Sc1nnc(-c2ccc3ccccc3n2)n1-c1cc(Cl)cc(Cl)c1` the IC50 [14] was > 64.6 µM (inactive) and the IC50 [15] was > 64.6 µM (inactive).
